Here are results for five compounds from US6706747B2, “Conformationally rigid bicyclic and adamantane derivatives useful as α2-adrenergic blocking agents” (Allergan, Inc., priority 1994, dated 2004).

The target in this experiment is T1, Rat Kidney Cortex (α2AB) (Rattus norvegicus, UniProt P19328).
T1 construct: Membrane suspensions were prepared from human cerebral cortex (HCC) obtained from the UCI Organ and Tissue Bank and rat kidney cortex (RKC); from tissue; host or cells: rat kidney cortex
T1 sequence (P19328 1-453): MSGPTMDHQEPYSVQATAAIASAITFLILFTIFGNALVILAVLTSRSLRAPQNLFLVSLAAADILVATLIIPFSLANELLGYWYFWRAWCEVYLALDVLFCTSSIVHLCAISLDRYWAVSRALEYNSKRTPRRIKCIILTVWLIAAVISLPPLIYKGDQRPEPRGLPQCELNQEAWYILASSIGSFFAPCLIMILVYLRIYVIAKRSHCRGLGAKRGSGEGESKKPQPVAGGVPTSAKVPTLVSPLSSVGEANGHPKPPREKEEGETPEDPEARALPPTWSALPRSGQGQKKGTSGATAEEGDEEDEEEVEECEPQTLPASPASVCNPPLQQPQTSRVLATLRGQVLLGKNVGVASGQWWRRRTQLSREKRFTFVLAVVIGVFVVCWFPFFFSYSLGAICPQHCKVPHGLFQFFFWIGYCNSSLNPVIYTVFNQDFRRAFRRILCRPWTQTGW
The experiment is described as follows: Radioligand binding, [3H]rauwolscine, rat kidney cortex (RKC) membranes. As to conditions: values marked †: rat kidney cortex, 0° C., 120 minutes, read-out: Ki (nM) α2B (RKC)†. As to the method: Tissue preparation: Membrane suspensions were prepared from human cerebral cortex (HCC) obtained from the UCI Organ and Tissue Bank and rat kidney cortex (RKC). Briefly, tissues (1 g) were homogenized in 25 ml of iced-cold 5 mM tris, pH 7.4 with a Polytron homogenizer for 30 secs at setting# 7, and centrifuged for. 10-12 minutes at 300×g at 4° C. The supernatant was filtered: through 2 layers of gauze and diluted 1:2 with 50 mM Tris-HCI buffer, pH 7.4, then centrifuged at 49,000×g for 20 minutes. The pellet fraction was washed 3 times (resuspended in Tris-HCl buffer and centrifuged for 20 minutes at 49,000×g). The pellet was then stored at −80° C. until the binding assay.
Binding studies: The radioligands [^3H]rauwolscine (specific activity 80 Ci/mmol) and [^3H]prazosin (specific activity 76 Ci/mmol) were obtained from New England Nuclear, Boston, Mass. Frozen membrane pellet was resuspended in 25 mM glycine/glycine, pH 7.4 and incubated with radioligand under the following conditions: CHO—C10, CHO—RNG, HT-29-[^3H]rauwolscine, 22° C., 30 minutes; RKC-[^3H]rauwolscine, 0° C., 120 minutes; and, HCC-[^3H]prazosin, 22° C., 30 minutes in a final volume of 500 μl. At the end of the incubation period, the samples were filtered through glass fiber filters (Whatman GF/B) in a 96 well cell harvester and rapidly washed four times with 4 ml of ice-cold 50 mM, Tris-HCl buffer. The filters were then oven dried and transferred to scintillation vials containing 5 ml of Beckman's Ready Protein® scintillation cocktail for counting. Specific binding defined by 10 μM phentolamine for competition studies were as follows: 0.3 nM [^3H]rauwolscine—CHO—C10 99%; 0.4 nM[^3H]rauwolscine —CHO—RNG 99%; 0.7;nM [^3H]rauwolscine—HT-29 90%; 1 nm [^3]rauwolscine—RKC 92%, and 0.3 nM [^3H]prazosin—HCC 87%. Protein concentrations were determined with a protein assay kit from Bio Rad. Binding isotherms, equilibrium dissociation and affinity constants were analyzed and determined by the non-linear least squares curve fitting programs AccuFit Competition/Saturation by Beckman.

As to `CCCCNC1=NCCO1`, the Ki was 317 nM.

In the case of `CC(C)C1C2CCC(C2)C1NC1=NCCO1` (centres unmarked), the Ki was 58 nM.

As to `CCCCC1C2CCC(C2)C1NC1=NCCO1` (centres unmarked), the Ki is 59 nM.

For `CCCCC1C2CCC(C2)C1NC1=NCCS1` (centres unmarked), the inhibition constant Ki was determined as 167 nM.

For the compound `C1CCC(C2C3CCC(C3)C2NC2=NCCN2)CC1` (centres unmarked), the inhibition constant (Ki) worked out at 5100 nM.

Broadly, the Ki is a measure of affinity in units of concentration, obtained from inhibition or displacement.
